# Values joined by “and” are separate entries in the source; they are usually repeats but may differ in a detail not shown here. Equal values may be shown once. “Also recorded” adds a separate entry of the source.
# Tests used:
# [1] = system: anxiety; test: Anxiety states monitored in twenty one patients after flumazenil; assay type: in vivo, human
# Text: Twenty one patients were monitored after treatment with flumazenil for the following states: (i) calmness, (ii) tenseness, (iii) relaxation, (iv) contentedness, (v) worry; and (vi) upset.
# [2] = system: HPA axis; test: HPA axis in stressed animals; assay type: in vivo
# Text: For this reason the combination of sustained release naltrexone and sustained release flumazenil using injections, implants or infusions would be expected to limit neuro-inflammatory diseases and their symptoms.
# [3] = system: alcohol patients; test: Survey of 84 alcohol patients after flumazenil infusions or implants; assay type: in vivo, human
# Text: In a survey of 84 alcohol patients the percent of patients drinking daily fell from 14.5% to 5.5% following flumazenil infusions or implants.
# [4] = system: psychosis; test: Drug or anxiety induced episodes of psychosis at detoxification; assay type: in vivo, human; details: patients with history of psychosis after ceasing cannabis, amphetamines and alcohol; sustained delivery
# [5] = system: anxiety; test: Anxiety during and after medication delivery; assay type: in vivo, human; details: flumazenil infusions; for many patients continued for very long periods afterwards
# Text: These observations appeared to indicate a cure or recovery of the patients underlying disease rather than relief of symptoms only. These observations included patients treated in five other years as well as the group treated in 2016-2017.
# [6] = system: smoking of nicotine cigarettes; test: Smoking of nicotine cigarettes in a group of 80 patients treated with flumazenil; assay type: in vivo, human
# Text: We have found a reduction in smoking of nicotine cigarettes with the use of flumazenil. We were able to document that those smoking changed from 82.7% before treatment to 75% following treatment in a group of 80 patients being treated with flumazenil.
# [7] = system: any dependency; test: Detoxification from any dependency, 108 patients followed; assay type: in vivo, human
# [8] = Blood / plasma flumazenil level in patients; assay type: in vivo, human
# Procedure: In a severe patient population, ondansetron may be given every 6-8 hours to assist in reducing the nausea and associated anxiety symptoms.
# The patient was then treated with a subcutaneous implant delivering an estimated 60-80 micrograms per hour of flumazenil (based on water bath release rate testing). The implant was expected to last 8-10 weeks. This prevented the migraines for about 9-10weeks. In the week before the implant was inserted, the patient's blood flumazenil level was noted to be 0.5 ng/ml. The usual expected level for 160 microgram an hour infusions was in the order of 2-3 ng per ml and 1-1.5 ng for 80 microgram per hour infusions.
# This finding that the migraines were stopped for a nine week period of time was amazing to the patient as they had suffered migraines for typically three weeks out of four for all of the years […]. At the end of week 8 on the first implant their blood flumazenil level was recorded as 0.5 ng per ml, which is considered a low level. Within a week another migraine started and the patient presented to the clinic for treatment.
# This next implant was also delivering an estimated 60-80 micrograms of flumazenil per hour. Evidence of ovulation was confirmed by routine elevation of progesterone during the luteal phase of one of the two cycles during the time of this second implant. Again no migraines occurred during an 8-9 week time of the second implant. Blood levels of flumazenil at 1.2 and 1.3 ng/ml were recorded during the time of the second implant. After 9-10 weeks the patient, presented to a teaching hospital on the weekend with another migraine. They were treated with all the modern treatments for migraines without resolution of the migraine.
# [9] = system: PTSD; test: PTSD patients treated with flumazenil and/or naltrexone; assay type: in vivo, human; details: infusions and implants
# Text: Post Trauma Stress Disorder (PTSD), causes dysregulation of anxiety control that may damage the GABAA system and present as hypervigilance, sleep disturbance, anxiety, gastrointestinal (GIT) or bladder symptoms. We have been using flumazenil for more than 8 years to treat patients presenting complex. The infusions and implants give relief to the anxiety, sleep disturbance and the GIT symptoms as well as urinary symptoms in many well established PTSD patients.
# Sleep remained normal following this. The profound recovery of sleep in patients with PTSD using flumazenil and naltrexone by continuous delivery has not previously been described.
# [10] = system: amphetamine use; test: Amphetamine / methamphetamine craving and withdrawal; assay type: in vivo, human; details: methamphetamine patients, flumazenil infusions at 160 μg/hour
# Procedure: In those patients that return 2-3 weeks with extreme anxiety and a desire to return to amphetamine use, the commencement of flumazenil infusions followed by a flumazenil implant that sustains a plasma concentration of flumazenil at 0.5-2 ng/ml or more decreases the cravings, including a decrease in the desire for amphetamines and allows reduction f irritability and aggression.
# [11] = system: benzodiazepine detoxification; test: Benzodiazepine detoxification with subcutaneous flumazenil infusion; assay type: in vivo, human
# Procedure: Benzodiazepines bring relief to stress and are involved in the release of dopamine. As with all other significant addictions, self-control is extremely damaged in patients with a severe benzodiazepine addiction. Our observations of the treatment of poly-drug dependency which includes benzodiazepine usually responds well to the use of flumazenil at 40-160 μg/hour together with 40-160 μg/hour or greater. […] The continual delivery of flumazenil at this rate allows most patients to reduce their benzodiazepine dosing over a few days to a week or two. The control of symptoms as these patients cease their benzodiazepine is controlled so that the majority of patients can cease benzodiazepine use successfully.
# We have used our solution of flumazenil at 16 mg per 30 ml with a pH of 4±1 as a subcutaneous infusion at 40 to 160 μg per hour as our standard treatment to reduce the symptoms associated with benzodiazepine detoxification.
# Anticonvulsants, such as sodium valproate at 500 to 1000 mg per day were used for the first 10 days of flumazenil treatment to reduce the risk of epileptic seizures. […] The infusion may require several weeks of treatment and can be followed up with a flumazenil infusion delivering 40 to 160 μg per hour or more, as required to complete detoxification from the opioid.
smiles,measurement,setting,value
CCOC(=O)c1ncn2c1CN(C)C(=O)c1cc(F)ccc1-2 [flumazenil],levels of relaxation following treatment,[1]; twenty one patients,statically significant increase
same,"states of calmness, tenseness, relaxation, contentedness, worry and upset",[1]; twenty one patients after treatment,improved
same,return of the HPA axis to normal,[2],help return the HPA axis
same,percentage abstinent to alcohol following treatment,[3]; 53.1% before,77.1%
same,percent of patients drinking daily following treatment,"[3]; flumazenil infusions or implants, 14.5% before",5.5%
same,onset of psychosis with detoxification,[4],prevents the onset of psychosis
same,anxiety during the time of medication delivery,[5],reduction of anxiety
same,fall in those using (smoking) daily,[6]; from 78.1% to 71.4%,4%
same,those smoking following treatment,"[6]; group of 80 patients, 82.7% before treatment",75%
same,those using (smoking) daily following treatment,"[6]; same population, 78.1% before treatment",71.4%
same,"daily use of alcohol, smoking, cannabis, amphetamines, opioids and other drug use",[7],reduction in daily use
same,usual expected blood flumazenil level,[8]; 80 microgram per hour infusions,1 to 1.5 ng
same,usual expected blood flumazenil level,[8]; 160 microgram an hour infusions,2-3 ng per ml
same,concentration at 8 weeks,"[8]; human, blood, subcutaneous, migraine patient, end of week 8 on the first implant",0.5 ng/mL
same,blood levels of flumazenil,"[8]; migraine patient, during the time of the second implant",1.2 ng/mL and 1.3 ng/mL
same,blood flumazenil level,"[8]; migraine patient, in the week before the implant was inserted",0.5 ng/mL
same,"PTSD symptoms (anxiety, sleep disturbance, GIT and urinary symptoms)",[9],give relief; also recorded: significant improvement
same,severe withdrawal symptoms including psychosis or extreme anxiety,[10],prevent these symptoms
same,blocking of positive modulation of the GABAA receptor with benzodiazepines,[11]; flumazenil at 40-160 μg/hour,not significantly blocked
same,time to cease benzodiazepine use after commencement of the infusion,[11]; subcutaneous infusion 40 to 160 μg per hour,within a few days to a week
same,craving for benzodiazepines,"[11]; subcutaneous infusion 40 to 160 μg per hour, 16 mg per 30 ml, pH 4±1",decrease in their craving for benzodiazepines

# — patent US20220152044A1, “TREATMENT OF INFLAMMATORY DISEASES OF THE CENTRAL NERVOUS SYSTEM” (PALMAYA PTY LTD, priority 2019, published 2022)
